Laboratory results: ChEMBL document CHEMBL4393656, “Cationic biaryl 1,2,3-triazolyl peptidomimetic amphiphiles targeting Clostridioides (Clostridium) difficile: Synthesis, antibacterial evaluation and an in vivo C. difficile infection model” (Eur J Med Chem, 2019)
In brackets after ≈: the same amount, converted by molar mass. Activity calls are given as the source filed them. No cut-off for these calls is given here.

What was measured:
Escherichia coli [1] = test: Induction of cytoplasmic membrane depolarization in Escherichia coli NCTC 10418 at 4 ug/ml by DiSC3-5 dye based fluorescence method; assay type: organism-based
Escherichia coli [2] = test: Induction of cytoplasmic membrane permeabilization in Escherichia coli NCTC 10418 at 4 ug/ml by propidium iodide staining based fluorescence method; assay type: organism-based
Clostridioides difficile [3] = test: Antibacterial activity against Clostridium difficile ribotype 027 M7404 spores infected in antibiotic cocktail-induced CDI C57BL/6J mouse model assessed as decrease in diarrhea at 100 mg/kg administered via oral gavage for every 12 hrs starting from 6 hrs post-infection and measured at 24 hrs post infection; assay type: functional, organism-based; conditions: genomovar ribotype 027 M7404
Clostridioides difficile [4] = test: Antibacterial activity against Clostridium difficile ribotype 027 M7404 spores infected in antibiotic cocktail-induced CDI C57BL/6J mouse model assessed as protection against bacterial infection at 100 mg/kg administered via oral gavage for every 12 hrs starting from 6 hrs post-infection and measured at 2 days post infection; assay type: functional, organism-based; conditions: genomovar ribotype 027 M7404
Clostridioides difficile [5] = test: Antibacterial activity against Clostridium difficile ribotype 027 M7404 spores infected in antibiotic cocktail-induced CDI C57BL/6J mouse model assessed as decrease in weight loss at 100 mg/kg administered via oral gavage for every 12 hrs starting from 6 hrs post-infection and measured at 24 hrs post infection; assay type: functional, organism-based; conditions: genomovar ribotype 027 M7404
Staphylococcus aureus [6] = test: Growth inhibition of Staphylococcus aureus ATCC 29213 incubated in MHB broth for 24 hrs; assay type: organism-based
Enterococcus faecalis = test: Growth inhibition of Enterococcus faecalis ATCC 29212 incubated in MHB broth for 24 hrs; assay type: organism-based
Streptococcus pneumoniae = test: Growth inhibition of Streptococcus pneumoniae ATCC 49619 incubated in MHB medium with lysed horse blood and 5% CO2 for 24 hrs; assay type: organism-based
Clostridioides difficile [7] = test: Antibacterial activity against Clostridium difficile ATCC 700057 incubated for 2 to 4 hrs in pre-reduced brucella broth supplemented with haemin/vitamin K and further incubation in anaerobic condition for 48 hrs; assay type: functional
Clostridioides difficile [8] = test: Antibacterial activity against Clostridium difficile NSW132 RT027 incubated for 2 to 4 hrs in pre-reduced brucella broth supplemented with haemin/vitamin K and further incubation in anaerobic condition for 48 hrs; assay type: functional
Escherichia coli [9] = test: Growth inhibition of Escherichia coli ATCC 25922 incubated for 18 hrs; assay type: organism-based
Klebsiella pneumoniae = test: Growth inhibition of Klebsiella pneumoniae ATCC 700603 incubated for 18 hrs; assay type: organism-based
Acinetobacter baumannii = test: Growth inhibition of Acinetobacter baumannii ATCC 19606 incubated for 18 hrs without shaking by absorbance based monochromator plate reader analysis; assay type: organism-based, ATCC 19606 = CIP 70.34 = JCM 6841; conditions: in vitro
Pseudomonas aeruginosa = test: Growth inhibition of Pseudomonas aeruginosa ATCC 27853 incubated for 18 hrs; assay type: organism-based
Staphylococcus aureus [10] = test: Growth inhibition of methicillin-resistant Staphylococcus aureus ATCC 43300 incubated for 18 hrs; assay type: organism-based
[11] = Cytotoxicity against HEK293 cells assessed as decrease in cell viability after 20 hrs by resazurin dye-based fluorescence assay; conditions: human
[12] = Haemolytic activity in sheep erythrocytes assessed as induction of haemolysis at 5 ug/ml incubated for 2 hrs relative to control; assay type: cell-based, Ovis aries, Erythrocyte; conditions: read-out: Activity
[13] = Haemolytic activity in sheep erythrocytes assessed as induction of haemolysis at 50 ug/ml incubated for 2 hrs relative to control; assay type: cell-based, Ovis aries, Erythrocyte; conditions: read-out: Activity
Clostridioides difficile [14] = test: Antibacterial activity against Clostridium difficile ribotype 027 M7404 spores infected in antibiotic cocktail-induced CDI C57BL/6J mouse model assessed as decrease in physiological appearance score at 100 mg/kg administered via oral gavage for every 12 hrs starting from 6 hrs post-infection and measured at 24 hrs post infection; assay type: functional, organism-based; conditions: genomovar ribotype 027 M7404
Clostridioides difficile [15] = test: Antibacterial activity against Clostridium difficile ribotype 027 M7404; assay type: functional; conditions: genomovar ribotype 027 M7404
Clostridioides difficile [16] = test: Antibacterial activity against Clostridium difficile ribotype 027 M7404 spores infected in antibiotic cocktail-induced CDI C57BL/6J mouse model assessed as decrease in fecal spore load at 100 mg/kg administered via oral gavage for every 12 hrs starting from 6 hrs post-infection and measured at 24 hrs post infection by heat shock based plating method; assay type: functional, organism-based; conditions: genomovar ribotype 027 M7404
Staphylococcus aureus [17] = test: Induction of cytoplasmic membrane depolarization in Staphylococcus aureus ATCC 29213 at 32 ug/ml by DiSC3-5 dye based fluorescence method; assay type: organism-based
Escherichia coli [18] = test: Induction of cytoplasmic membrane depolarization in Escherichia coli NCTC 10418 at 64 ug/ml by DiSC3-5 dye based fluorescence method; assay type: organism-based
Staphylococcus aureus [19] = test: Induction of cytoplasmic membrane permeabilization in Staphylococcus aureus ATCC 29213 at 32 ug/ml by propidium iodide staining based fluorescence method relative to control
Escherichia coli [20] = test: Induction of cytoplasmic membrane permeabilization in Escherichia coli NCTC 10418 at 32 ug/ml by propidium iodide staining based fluorescence method; assay type: organism-based
Staphylococcus aureus [21] = test: Induction of cytoplasmic membrane permeabilization in Staphylococcus aureus ATCC 29213 at 32 ug/ml measured after 10 mins by propidium iodide staining based fluorescence method; assay type: organism-based
[22] = Aqueous solubility of the DMSO-dissolved compound in >200 uL water at 5 mg; assay type: physicochemical; conditions: buffer
[23] = Solubility of the compound in 10% DMSO solution; assay type: physicochemical
Staphylococcus aureus [24] = test: Induction of cytoplasmic membrane depolarization in Staphylococcus aureus ATCC 29213 at 8 ug/ml by DiSC3-5 dye based fluorescence method; assay type: organism-based
Staphylococcus aureus [25] = test: Growth inhibition of methicillin resistant Staphylococcus aureus NCTC 10442 incubated in MHB medium for 24 hrs; assay type: organism-based
Staphylococcus aureus [26] = test: Induction of cytoplasmic membrane permeabilization in Staphylococcus aureus ATCC 29213 at 8 ug/ml by propidium iodide staining based fluorescence method; assay type: organism-based
Clostridioides difficile [27] = test: Antibacterial activity against Clostridium difficile ribotype 027 M7404 spores infected in antibiotic cocktail-induced CDI C57BL/6J mouse model assessed as survival rate at 100 mg/kg administered via oral gavage for every 12 hrs starting from 6 hrs post-infection and measured at 24 hrs post infection (reference value: 0%); assay type: functional, genomovar ribotype 027 M7404
[28] = Drug accumulation in blood of antibiotic cocktail-induced CDI C57BL/6J mouse model infected with Clostridium difficile ribotype 027 M7404 spores at 100 mg/kg administered via oral gavage for every 12 hrs starting from 6 hrs post-infection by LRMS analysis; assay type: ADME, organism-based; conditions: in vivo
[29] = Drug accumulation in feces of antibiotic cocktail-induced CDI C57BL/6J mouse model infected with Clostridium difficile ribotype 027 M7404 spores at 100 mg/kg administered via oral gavage for every 12 hrs starting from 6 hrs post-infection by LRMS analysis; assay type: ADME, organism-based; conditions: in vivo
[30] = Drug localization in blood of C57BL/6J mouse measured after 2 hr by LRMS analysis; assay type: ADME, tissue-based
Staphylococcus aureus [31] = test: Induction of cytoplasmic membrane permeabilization in Staphylococcus aureus ATCC 29213 at 32 ug/ml measured after 40 mins by propidium iodide staining based fluorescence method; assay type: organism-based

Molecule	Activity (Clostridioides difficile [3])	Activity (Clostridioides difficile [4])	Activity (Clostridioides difficile [5])	MIC (Staphylococcus aureus [6]) [µg/mL]	MIC (Enterococcus faecalis) [µg/mL]	MIC (Streptococcus pneumoniae) [µg/mL]	MIC (Clostridioides difficile [7]) [µg/mL]	MIC (Clostridioides difficile [8]) [µg/mL]	MIC (Escherichia coli [9]) [µg/mL]	MIC (Klebsiella pneumoniae) [µg/mL]	MIC (Acinetobacter baumannii) [µg/mL]	MIC (Pseudomonas aeruginosa) [µg/mL]	MIC (Staphylococcus aureus [10]) [µg/mL]	CC50 at 20 h [11] [µg/mL]	hemolysis at 2 h, 5 ug/ml [12] [%]	hemolysis at 2 h, 50 ug/ml [13] [%]	Activity (Clostridioides difficile [14])	Activity (Clostridioides difficile [16])	further results
COLISTIN	–	–	–	–	–	–	–	–	–	–	–	–	–	–	–	–	–	–	Activity (Escherichia coli [1]): Active; Activity (Escherichia coli [2]): Active
CC(C)CCOc1ccc2ccccc2c1-c1c(OCC(=O)N[C@H](CCCNC(=N)N)C(=O)NCc2ccccc2)ccc2ccccc12.Cl	inactive	inactive	inactive	2	2	2	8	8	> 32	> 32	> 32	> 32	4	> 32	0.3	100	inactive	–	MIC (Clostridioides difficile [15]): 2 µg/mL
CC(C)CCOc1ccccc1-c1ccccc1OCc1cn(C[C@@H](CCCCN)NC(=O)[C@@H](CCCNC(=N)N)n2cc(CC3CCCCC3)nn2)nn1.Cl.Cl	inactive	inactive	inactive	–	–	–	1	–	–	–	–	–	–	–	–	–	inactive	inactive	–
CC(C)CCOc1ccccc1-c1ccccc1OCc1cn([C@H](CCCNC(=N)N)C(=O)NC2CCCCC2)nn1.Cl	Active	inactive	inactive	4	4	4	8	16	> 32	> 32	32	> 32	4	19.7	1.4	81.8	–	Active	Activity (Staphylococcus aureus [17]): Active; Activity (Escherichia coli [18]): Active; Activity (Staphylococcus aureus [19]): >500%; Activity (Escherichia coli [20]): Active; Activity (Staphylococcus aureus [21]): Active
CC(C)CCOc1ccccc1-c1ccccc1OCc1cn([C@H](CCCCN)C(=O)NCC2CCCCC2)nn1.Cl	–	–	–	8	8	8	16	32	> 32	> 32	32	> 32	8	5.6	0	98	–	–	solubility [22]: Soluble
CC(C)CCOc1ccc2ccccc2c1-c1c(OCC(=O)N[C@H](CCCNC(=N)N)Cn2cc(-c3ccccc3)nn2)ccc2ccccc12.Cl	–	–	–	–	–	–	8	–	–	–	–	–	–	–	–	86	–	–	solubility [23]: Insoluble
CC(C)CCOc1ccccc1-c1ccccc1OCc1cn(C[C@@H](CCCCN)NC(=O)[C@@H](CCCNC(=N)N)n2cc(C3CCCCC3)nn2)nn1.Cl.Cl	inactive	inactive	inactive	–	–	–	4	–	–	–	–	–	–	–	–	–	inactive	inactive	–
CN[C@H](CC(C)C)C(=O)N[C@H]1C(=O)N[C@@H](CC(N)=O)C(=O)N[C@H]2C(=O)N[C@H]3C(=O)N[C@H](C(=O)N[C@H](C(=O)O)c4cc(O)cc(O)c4-c4cc3ccc4O)[C@H](O)c3ccc(c(Cl)c3)Oc3cc2cc(c3O[C@@H]2O[C@H](CO)[C@@H](O)[C@H](O)[C@H]2O[C@H]2C[C@](C)(N)[C@H](O)[C@H](C)O2)Oc2ccc(cc2Cl)[C@H]1O [VANCOMYCIN]	–	–	–	1 (≈ 0.69 µM)	4 (≈ 2.76 µM)	1 (≈ 0.69 µM)	0.5 (≈ 0.345 µM)	0.5 (≈ 0.345 µM)	–	–	–	–	1 (≈ 0.69 µM)	–	–	–	–	–	Activity (Staphylococcus aureus [24]): inactive; MIC (Staphylococcus aureus [25]): 1 µg/mL (≈ 0.69 µM); Activity (Staphylococcus aureus [26]): inactive
CC(C)CCOc1ccc2ccccc2c1-c1c(OCc2cn(C[C@@H](CCCCN)NC(=O)[C@@H](CCCNC(=N)N)NC(=O)CCc3ccccc3)nn2)ccc2ccccc12.Cl.Cl	Active	–	–	–	–	–	8	–	–	–	–	–	–	–	–	–	–	–	Activity (Clostridioides difficile [27]): 50%; Drug uptake [28]: Not Active; Drug uptake [29]: Active; Drug uptake [30]: Not Active
CC(C)CCOc1ccccc1-c1ccccc1OCc1cn([C@H](CCCCN)C(=O)N[C@H](CCCNC(=N)N)Cn2cc(CCc3ccccc3)nn2)nn1.Cl.Cl	–	–	–	4	8	8	16	16	8	16	8	8	2	16.4	1.4	12.6	–	–	Activity (Staphylococcus aureus [31]): Active; Activity (Staphylococcus aureus [17]): Active; Activity (Escherichia coli [18]): Active; Activity (Staphylococcus aureus [19]): >500%; Activity (Escherichia coli [20]): Active
